Data published in ChEMBL document CHEMBL1137885, “P4 and P1' optimization of bicycloproline P2 bearing tetrapeptidyl alpha-ketoamides as HCV protease inhibitors” (Bioorg Med Chem Lett, 2004).

Columns and labels:
NS3 = NS3 (Hepatitis C virus, UniProt A3EZJ3); experiment: Inhibition of HCV NS3 protease in the pNA based inhibition assay; parameters: species or system Hepacivirus hominis
[1] = Selectivity for HCV NS3 over human elastase
Cathepsin B = Cathepsin B (Homo sapiens, UniProt P07858); experiment: Binding affinity towards human cathepsin B
Plasminogen = Plasminogen (Homo sapiens, UniProt P00747); experiment: Binding affinity towards human plasmin
Chain of Plasminogen (P00747 97-580 limits assumed): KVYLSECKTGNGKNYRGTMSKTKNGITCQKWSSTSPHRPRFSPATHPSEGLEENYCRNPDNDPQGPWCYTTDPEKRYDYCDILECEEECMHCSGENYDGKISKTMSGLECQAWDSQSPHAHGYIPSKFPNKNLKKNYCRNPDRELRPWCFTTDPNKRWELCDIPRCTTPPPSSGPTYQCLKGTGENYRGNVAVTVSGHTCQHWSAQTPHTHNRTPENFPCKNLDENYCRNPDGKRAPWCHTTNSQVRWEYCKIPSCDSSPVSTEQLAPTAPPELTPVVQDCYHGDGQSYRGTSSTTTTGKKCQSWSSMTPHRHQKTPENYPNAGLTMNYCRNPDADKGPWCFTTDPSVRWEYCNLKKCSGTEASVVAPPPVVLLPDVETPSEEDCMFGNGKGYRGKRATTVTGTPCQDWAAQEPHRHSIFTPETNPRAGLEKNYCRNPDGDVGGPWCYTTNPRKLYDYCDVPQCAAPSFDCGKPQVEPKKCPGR
Chain of Plasminogen (P00747 581-810 limits assumed): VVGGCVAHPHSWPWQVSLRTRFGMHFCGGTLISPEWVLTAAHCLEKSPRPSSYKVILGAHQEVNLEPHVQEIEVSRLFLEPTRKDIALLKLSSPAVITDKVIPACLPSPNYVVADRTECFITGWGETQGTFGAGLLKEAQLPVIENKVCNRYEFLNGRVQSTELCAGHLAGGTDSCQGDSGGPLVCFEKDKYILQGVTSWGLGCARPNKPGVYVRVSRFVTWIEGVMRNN

Chymotrypsinogen B = Chymotrypsinogen B (Homo sapiens, UniProt P17538); experiment: Binding affinity towards human Chymotrypsinogen
Chain of Chymotrypsinogen B (P17538 34-164 limits assumed, other chains not shown): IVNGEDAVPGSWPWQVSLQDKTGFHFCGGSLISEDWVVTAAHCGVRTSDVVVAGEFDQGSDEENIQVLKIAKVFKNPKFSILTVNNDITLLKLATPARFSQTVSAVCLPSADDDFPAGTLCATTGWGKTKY
Chain of Chymotrypsinogen B (P17538 167-263 limits assumed, other chains not shown): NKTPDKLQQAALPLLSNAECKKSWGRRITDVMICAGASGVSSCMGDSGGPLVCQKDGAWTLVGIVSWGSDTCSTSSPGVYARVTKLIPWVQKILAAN

Trypsin = Trypsin (Homo sapiens, UniProt P07477+P07478+P35030); experiment: Binding affinity towards human trypsin; assay type: protein assay
Procathepsin L = Procathepsin L (Homo sapiens, UniProt P07711); experiment: Selectivity for HCV NS3 over human cathepsin L
Chain of Procathepsin L (P07711 whole entry): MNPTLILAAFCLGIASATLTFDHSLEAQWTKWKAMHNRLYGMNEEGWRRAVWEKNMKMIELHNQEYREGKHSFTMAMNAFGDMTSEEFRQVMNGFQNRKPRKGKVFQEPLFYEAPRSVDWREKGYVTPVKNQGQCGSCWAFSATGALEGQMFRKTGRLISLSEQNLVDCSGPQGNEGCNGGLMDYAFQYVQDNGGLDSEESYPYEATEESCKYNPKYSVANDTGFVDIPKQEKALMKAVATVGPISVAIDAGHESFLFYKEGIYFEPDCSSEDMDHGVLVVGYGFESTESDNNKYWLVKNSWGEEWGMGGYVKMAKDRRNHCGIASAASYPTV

Huh-7 [2] = experiment: Ratio of CC50 to that of IC50 value; assay type: functional, Homo sapiens
Hepatitis C virus = experiment: Inhibitory concentration against hepatitis C virus in replicon assay; assay type: functional, organism-based, Hepacivirus hominis
Huh-7 [3] = experiment: Cytotoxic concentration against Huh-7 liver cells in XTT cytotoxicity assay; assay type: functional; details: Homo sapiens
Prothrombin = Prothrombin (Homo sapiens, UniProt P00734); experiment: Binding affinity towards human thrombin
Plasma kallikrein = Plasma kallikrein (Homo sapiens, UniProt P03952); experiment: Binding affinity towards human kallikrein
Chain of Plasma kallikrein (P03952 20-390 limits assumed): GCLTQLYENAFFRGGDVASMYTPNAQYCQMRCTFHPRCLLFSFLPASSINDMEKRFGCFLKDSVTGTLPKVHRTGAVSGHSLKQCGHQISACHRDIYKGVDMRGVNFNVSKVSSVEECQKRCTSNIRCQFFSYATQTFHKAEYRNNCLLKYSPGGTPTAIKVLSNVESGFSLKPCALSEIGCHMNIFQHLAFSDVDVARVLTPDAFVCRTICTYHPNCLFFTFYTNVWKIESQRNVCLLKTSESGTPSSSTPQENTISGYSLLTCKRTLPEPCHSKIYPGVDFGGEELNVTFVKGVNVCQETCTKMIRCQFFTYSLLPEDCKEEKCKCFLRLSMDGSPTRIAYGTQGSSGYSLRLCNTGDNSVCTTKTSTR
Chain of Plasma kallikrein (P03952 391-638 limits assumed): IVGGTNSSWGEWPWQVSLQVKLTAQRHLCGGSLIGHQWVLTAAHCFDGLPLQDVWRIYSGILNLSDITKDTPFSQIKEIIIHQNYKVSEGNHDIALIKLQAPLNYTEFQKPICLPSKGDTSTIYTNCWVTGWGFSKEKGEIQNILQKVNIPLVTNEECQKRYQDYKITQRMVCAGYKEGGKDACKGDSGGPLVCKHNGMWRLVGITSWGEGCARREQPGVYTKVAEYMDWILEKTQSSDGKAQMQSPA

Chain of NS3 (A3EZJ3 whole entry): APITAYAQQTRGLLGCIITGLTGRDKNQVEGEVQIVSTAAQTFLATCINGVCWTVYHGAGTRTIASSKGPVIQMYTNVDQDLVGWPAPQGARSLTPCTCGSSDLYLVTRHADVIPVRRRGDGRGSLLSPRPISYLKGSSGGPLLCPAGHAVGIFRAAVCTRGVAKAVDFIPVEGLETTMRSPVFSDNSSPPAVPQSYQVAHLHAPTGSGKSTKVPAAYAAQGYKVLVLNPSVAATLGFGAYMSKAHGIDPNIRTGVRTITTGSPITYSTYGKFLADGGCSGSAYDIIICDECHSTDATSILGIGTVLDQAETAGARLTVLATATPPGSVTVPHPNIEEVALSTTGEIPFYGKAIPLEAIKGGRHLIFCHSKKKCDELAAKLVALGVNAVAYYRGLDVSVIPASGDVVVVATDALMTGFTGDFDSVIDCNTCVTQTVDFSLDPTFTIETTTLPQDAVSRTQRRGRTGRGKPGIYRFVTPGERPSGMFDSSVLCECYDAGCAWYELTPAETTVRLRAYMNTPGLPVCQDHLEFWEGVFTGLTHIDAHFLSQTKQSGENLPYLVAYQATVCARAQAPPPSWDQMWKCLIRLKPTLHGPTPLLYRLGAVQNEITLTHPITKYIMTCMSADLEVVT

SMILES | Ki (NS3) | selectivity ratio [1] | Ki (Cathepsin B) | Ki (Plasminogen) | Ki (Chymotrypsinogen B) | Ki (Trypsin) | selectivity ratio (Procathepsin L) | IC50 (Hepatitis C virus) | Ki (Prothrombin) | Ki (Plasma kallikrein) | Ratio (Huh-7 [2]) | CC50 (Huh-7 [3])
CCCC(NC(=O)[C@@H]1[C@H]2CCC[C@H]2CN1C(=O)[C@@H](NC(=O)[C@@H](NC(=O)c1cnccn1)C1CCCCC1)C(C)(C)C)C(=O)C(=O)NC1CC1 (stereo partly drawn) | 0.07 µM | 62 | 3 µM | > 50 µM | > 50 µM | > 50 µM | 134 | 0.55 µM | > 50 µM | > 50 µM | 157 | 86.5 µM
CCCC(NC(=O)[C@@H]1[C@H]2CCC[C@H]2CN1C(=O)[C@@H](NC(=O)[C@@H](NC(=O)c1cnccn1)C(C)C)C(C)(C)C)C(=O)C(=O)NC1CC1 (stereo partly drawn) |  |  | 1.6 µM | > 50 µM | > 50 µM | > 50 µM |  |  | > 50 µM | > 50 µM |  | > 100 µM
CCCC(NC(=O)[C@@H]1C2CCCC2CN1C(=O)[C@@H](NC(=O)[C@@H](NC(=O)c1cnccn1)C1CCCCC1)C(C)(C)C)C(=O)C(=O)NC[C@@H](C)CC (stereo partly drawn) | 0.25 µM |  |  |  |  |  |  | 1 µM |  |  | 32 | 31.7 µM
CCCC(NC(=O)[C@@H]1C2CCCC2CN1C(=O)[C@@H](NC(=O)[C@H](CC1CCCCC1)NC(=O)c1cnccn1)C(C)(C)C)C(=O)C(=O)NC1CC1 (stereo partly drawn) | 0.65 µM |  |  |  |  |  |  | 2.81 µM |  |  | 16 | 45.5 µM
CCC[C@H](NC(=O)[C@@H]1C2CCCC2CN1C(=O)[C@@H](NC(=O)[C@@H](NC(=O)c1cnccn1)c1ccccc1)C(C)(C)C)C(=O)C(=O)NC1CC1 (stereo partly drawn) | 0.65 µM |  |  |  |  |  |  | 2.81 µM |  |  | 21 | 58.6 µM

More lines, in order of falling Ki (NS3), values ahead:

Ki (NS3) | selectivity ratio [1] | Ki (Cathepsin B) | Ki (Plasminogen) | Ki (Chymotrypsinogen B) | Ki (Trypsin) | selectivity ratio (Procathepsin L) | IC50 (Hepatitis C virus) | Ki (Prothrombin) | Ki (Plasma kallikrein) | SMILES | Ratio (Huh-7 [2]) | CC50 (Huh-7 [3])
0.16 µM | 102 | 3.9 µM | > 50 µM | > 50 µM | > 50 µM | 123 | 1.29 µM | > 50 µM | > 50 µM | CCC[C@H](NC(=O)[C@@H]1C2CCCC2CN1C(=O)[C@@H](NC(=O)[C@@H](NC(=O)c1cnccn1)C(C)(C)C)C(C)(C)C)C(=O)C(=O)NC1CC1 (stereo partly drawn) | >77 | > 100 µM
0.15 µM | 126 | 7.3 µM | > 50 µM | > 50 µM | > 50 µM | 146 | 4.35 µM | > 50 µM | > 50 µM | CCC[C@H](NC(=O)[C@@H]1C2CCCC2CN1C(=O)[C@@H](NC(=O)[C@@H](NC(=O)c1cnccn1)[C@@H](C)OC)C(C)(C)C)C(=O)C(=O)NC1CC1 (stereo partly drawn) | >22 | > 100 µM
0.09 µM | 29 | 283 µM | > 50 µM | > 50 µM | > 50 µM | 51 | 0.21 µM | > 50 µM | > 50 µM | CCCC(NC(=O)[C@@H]1C2CCCC2CN1C(=O)[C@@H](NC(=O)[C@@H](NC(=O)c1cnccn1)C1CCCCC1)C(C)(C)C)C(=O)C(=O)N[C@H](C)c1ccccc1 (stereo partly drawn) | 105 | 22 µM
0.08 µM | 81 | 13 µM | > 50 µM | > 50 µM | > 50 µM | 107 | 1.07 µM | > 50 µM | > 50 µM | CCCC(NC(=O)[C@@H]1C2CCCC2CN1C(=O)[C@@H](NC(=O)[C@@H](NC(=O)c1cnccn1)C1CCCCC1)C(C)(C)C)C(=O)C(=O)N[C@H](C)CC (stereo partly drawn) | 65 | 69.2 µM
0.08 µM | 36 | 10 µM | > 50 µM | > 50 µM | > 50 µM | 15 | 1.44 µM | > 50 µM | > 50 µM | CCC[C@H](NC(=O)[C@@H]1C2CCCC2CN1C(=O)[C@@H](NC(=O)[C@@H](NC(=O)c1cnccn1)[C@@H](C)CC)C(C)(C)C)C(=O)C(=O)NC1CC1 (stereo partly drawn) | >69 | > 100 µM
0.02 µM | 392 | 40 µM | > 50 µM | > 50 µM | > 50 µM | 760 | 0.4 µM | > 50 µM | > 50 µM | CC(C)(C)[C@H](NC(=O)[C@@H](NC(=O)c1cnccn1)C1CCCCC1)C(=O)N1CC2CCCC2[C@H]1C(=O)NC(CC(F)F)C(=O)C(=O)NC1CC1 (stereo partly drawn) | 250 | > 100 µM
